Columns and labels:
Type in all cases: in vivo
wild oat (Avena fatua) = experiment: Test B postemergence; details: for Oat, Wild plant response rating: 125 g ai/ha, scale 0 to 100 (0 no effect, 100 complete control); for Plant response rating, Oat, Wild: 500 g ai/ha, scale 0 to 100
Outline: (§1)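 Following sowing, compounds in a surfactant-bearing non-phytotoxic solvent were applied preemergence; emerged plants 2 to 18 cm high got postemergence treatment concurrently. Evaluation: 13 to 15 days later, greenhouse, 0–100 visual scale.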

[1] = tested on: blackgrass (Alopecurus myosuroides); experiment: Test B postemergence; details: for Blackgrass plant response rating: 125 g ai/ha, scale 0 to 100 (0 no effect, 100 complete control); for Plant response rating, Blackgrass: 500 g ai/ha, scale 0 to 100
Outline: as §1

[2] = tested on: duck salad (Heteranthera limosa); experiment: Test B flooded paddy test; details: Flood, 1000 g ai/ha; scale 0 to 100
Outline: (§2)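 Rice, umbrella sedge, duck salad and barnyardgrass grown to 2-leaf stage under flooded paddy conditions and treated with formulated test chemicals. Kept in greenhouse 13–15 days, then visually rated against untreated controls on a 0–100 scale (0 no effect, 100 complete control).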

rice (Oryza sativa) = experiment: Test B flooded paddy test; details: Flood, 1000 g ai/ha; scale 0 to 100
Outline: as §2

[3] = tested on: barnyardgrass (Echinochloa crus-galli); experiment: Test B flooded paddy test; details: Flood, 1000 g ai/ha; scale 0 (no effect) to 100 (complete control)
Outline: as §2

[4] = tested on: umbrella sedge (Cyperus difformis); experiment: Test B flooded paddy test; details: Flood, 1000 g ai/ha; scale 0 to 100
Outline: as §2

[5] = tested on: lambsquarters (Chenopodium album); experiment: Test B pre/postemergence
Outline: as §1

[6] = tested on: cocklebur (Xanthium strumarium); experiment: Test B pre/postemergence
Outline: as §1

[7] = tested on: velvetleaf (Abutilon theophrasti); experiment: Test B pre/postemergence
Outline: as §1

[8] = tested on: morningglory (Ipomoea coccinea); experiment: Test B pre/postemergence
Outline: as §1

[9] = tested on: wheat (Triticum aestivum); experiment: Test B pre/postemergence
Outline: as §1

[10] = tested on: pigweed (Amaranthus retroflexus); experiment: Test B pre/postemergence
Outline: as §1

[11] = tested on: Surinam grass (Brachiaria decumbens); experiment: Test B pre/postemergence
Outline: as §1

corn (Zea mays) = experiment: Test B pre/postemergence
Outline: as §1

[12] = tested on: giant foxtail (Setaria faberii); experiment: Test B pre/postemergence
Outline: as §1

[13] = tested on: crabgrass (Digitaria sanguinalis); experiment: Test B pre/postemergence
Outline: as §1

[14] = tested on: barnyardgrass (Echinochloa crus-galli); experiment: Test B pre/postemergence
Outline: as §1

[15] = Postemergence, 125 g ai/ha, scale 0 to 100 (0 no effect, 100 complete control)
[16] = Postemergence, 500 g ai/ha, scale 0 to 100
[17] = Preemergence, 125 g ai/ha, scale 0 to 100 (0 no effect, 100 complete control)
[18] = Preemergence, 500 g ai/ha, scale 0 to 100 (0 no effect, 100 complete control)

## CCOC(=O)Cc1nc(C2CC2)nc(N=CN(C)C)c1Br [Compound 33]
Wild oat (Avena fatua)
  Oat, Wild plant response rating: 20
  Plant response rating, Oat, Wild: 20
[1]
  Blackgrass plant response rating: 40
  Plant response rating, Blackgrass: 40
[2]
  Plant response rating, Ducksalad: 0
Rice (Oryza sativa)
  Plant response rating, Rice: 0
[3]
  Plant response rating, Barnyardgrass: 0
[4]
  Plant response rating, Sedge, Umbrella: 0
[5]; [15]
  Lambsquarters plant response rating: 60
[5]; [16]
  Plant response rating, Lambsquarters: 70
[5]; [17]
  Plant response rating, Lambsquarters: 90
[5]; [18]
  Lambsquarters plant response rating: 100
[6]; [15]
  Cocklebur plant response rating: 60
[6]; [16]
  Plant response rating, Cocklebur: 80
[6]; [17]
  Plant response rating, Cocklebur: 80
[6]; [18]
  Cocklebur plant response rating: 90
[7]; [15]
  Velvetleaf plant response rating: 40
[7]; [16]
  Plant response rating, Velvetleaf: 50
[7]; [17]
  Plant response rating, Velvetleaf: 70
[7]; [18]
  Velvetleaf plant response rating: 80
[8]; [15]
  Morningglory plant response rating: 40
[8]; [16]
  Plant response rating, Morningglory: 70
[8]; [17]
  Plant response rating, Morningglory: 0
[8]; [18]
  Morningglory plant response rating: 90
[9]; [15]
  Wheat plant response rating: 20
[9]; [16]
  Plant response rating, Wheat: 20
[9]; [17]
  Plant response rating, Wheat: 0
[9]; [18]
  Wheat plant response rating: 50
[10]; [15]
  Pigweed plant response rating: 60
[10]; [16]
  Plant response rating, Pigweed: 80
[10]; [17]
  Plant response rating, Pigweed: 80
[10]; [18]
  Pigweed plant response rating: 90
[11]; [15]
  Surinam Grass plant response rating: 0
[11]; [16]
  Plant response rating, Surinam Grass: 0
[11]; [17]
  Plant response rating, Surinam Grass: 0
[11]; [18]
  Surinam Grass plant response rating: 40
Corn (Zea mays); [15]
  Corn plant response rating: 0
Corn (Zea mays); [16]
  Plant response rating, Corn: 0
Corn (Zea mays); [17]
  Plant response rating, Corn: 10
Corn (Zea mays); [18]
  Corn plant response rating: 30
[12]; [15]
  Foxtail, Giant plant response rating: 10
[12]; [16]
  Plant response rating, Foxtail, Giant: 40
[12]; [17]
  Plant response rating, Foxtail, Giant: 0
[12]; [18]
  Foxtail, Giant plant response rating: 40
[13]; [15]
  Crabgrass plant response rating: 10
[13]; [16]
  Plant response rating, Crabgrass: 20
[13]; [17]
  Plant response rating, Crabgrass: 0
[13]; [18]
  Crabgrass plant response rating: 50
[14]; [15]
  Barnyardgrass plant response rating: 0
[14]; [16]
  Plant response rating, Barnyardgrass: 20
[14]; [17]
  Plant response rating, Barnyardgrass: 20
[14]; [18]
  Barnyardgrass plant response rating: 50

## CC(=O)NN=Cc1nc(C2CC2)nc(N)c1Br [Compound 51]
Wild oat (Avena fatua)
  Oat, Wild plant response rating: 20
  Plant response rating, Oat, Wild: 30
[1]
  Blackgrass plant response rating: 20
  Plant response rating, Blackgrass: 30
[2]
  Plant response rating, Ducksalad: 0
Rice (Oryza sativa)
  Plant response rating, Rice: 0
[3]
  Plant response rating, Barnyardgrass: 0
[4]
  Plant response rating, Sedge, Umbrella: 0
[5]; [15]
  Lambsquarters plant response rating: 80
[5]; [16]
  Plant response rating, Lambsquarters: 90
[5]; [18]
  Plant response rating, Lambsquarters: 80
[6]; [15]
  Cocklebur plant response rating: 80
[6]; [16]
  Plant response rating, Cocklebur: 90
[6]; [17]
  Plant response rating, Cocklebur: 0
[6]; [18]
  Plant response rating, Cocklebur: 20
[7]; [15]
  Velvetleaf plant response rating: 70
[7]; [16]
  Plant response rating, Velvetleaf: 80
[7]; [17]
  Plant response rating, Velvetleaf: 0
[7]; [18]
  Plant response rating, Velvetleaf: 0
[8]; [15]
  Morningglory plant response rating: 80
[8]; [16]
  Plant response rating, Morningglory: 90
[8]; [17]
  Plant response rating, Morningglory: 0
[8]; [18]
  Plant response rating, Morningglory: 40
[9]; [15]
  Wheat plant response rating: 30
[9]; [16]
  Plant response rating, Wheat: 40
[9]; [17]
  Plant response rating, Wheat: 0
[9]; [18]
  Plant response rating, Wheat: 0
[10]; [15]
  Pigweed plant response rating: 80
[10]; [16]
  Plant response rating, Pigweed: 90
[10]; [17]
  Plant response rating, Pigweed: 10
[10]; [18]
  Plant response rating, Pigweed: 70
[11]; [15]
  Surinam Grass plant response rating: 0
[11]; [16]
  Plant response rating, Surinam Grass: 40
[11]; [17]
  Plant response rating, Surinam Grass: 0
[11]; [18]
  Plant response rating, Surinam Grass: 0
Corn (Zea mays); [15]
  Corn plant response rating: 0
Corn (Zea mays); [16]
  Plant response rating, Corn: 0
Corn (Zea mays); [17]
  Plant response rating, Corn: 0
Corn (Zea mays); [18]
  Plant response rating, Corn: 0
[12]; [15]
  Foxtail, Giant plant response rating: 0
[12]; [16]
  Plant response rating, Foxtail, Giant: 30
[12]; [17]
  Plant response rating, Foxtail, Giant: 0
[12]; [18]
  Plant response rating, Foxtail, Giant: 0
[13]; [15]
  Crabgrass plant response rating: 30
[13]; [16]
  Plant response rating, Crabgrass: 60
[13]; [17]
  Plant response rating, Crabgrass: 0
[13]; [18]
  Plant response rating, Crabgrass: 0
[14]; [15]
  Barnyardgrass plant response rating: 20
[14]; [16]
  Plant response rating, Barnyardgrass: 60
[14]; [17]
  Plant response rating, Barnyardgrass: 0
[14]; [18]
  Plant response rating, Barnyardgrass: 0

## CCOC(=O)Cc1nc(C2CC2)nc(N)c1Br [Compound 12]
Wild oat (Avena fatua)
  Oat, Wild plant response rating: 0
  Plant response rating, Oat, Wild: 0
[1]
  Blackgrass plant response rating: 0
  Plant response rating, Blackgrass: 0
[2]
  Plant response rating, Ducksalad: 20
Rice (Oryza sativa)
  Plant response rating, Rice: 20
[3]
  Plant response rating, Barnyardgrass: 0
[4]
  Plant response rating, Sedge, Umbrella: 0
[5]; [15]
  Lambsquarters plant response rating: 60
[5]; [16]
  Plant response rating, Lambsquarters: 80
[5]; [17]
  Plant response rating, Lambsquarters: 90
[5]; [18]
  Lambsquarters plant response rating: 100
[6]; [15]
  Cocklebur plant response rating: 40
[6]; [16]
  Plant response rating, Cocklebur: 70
[6]; [17]
  Plant response rating, Cocklebur: 80
[6]; [18]
  Cocklebur plant response rating: 90
[7]; [15]
  Velvetleaf plant response rating: 20
[7]; [16]
  Plant response rating, Velvetleaf: 60
[7]; [17]
  Plant response rating, Velvetleaf: 80
[7]; [18]
  Velvetleaf plant response rating: 90
[8]; [15]
  Morningglory plant response rating: 60
[8]; [16]
  Plant response rating, Morningglory: 80
[8]; [17]
  Plant response rating, Morningglory: 70
[8]; [18]
  Morningglory plant response rating: 90
[9]; [15]
  Wheat plant response rating: 0
[9]; [16]
  Plant response rating, Wheat: 0
[9]; [17]
  Plant response rating, Wheat: 30
[9]; [18]
  Wheat plant response rating: 60
[10]; [15]
  Pigweed plant response rating: 50
[10]; [16]
  Plant response rating, Pigweed: 80
[10]; [17]
  Plant response rating, Pigweed: 80
[10]; [18]
  Pigweed plant response rating: 90
[11]; [15]
  Surinam Grass plant response rating: 0
[11]; [16]
  Plant response rating, Surinam Grass: 0
[11]; [17]
  Plant response rating, Surinam Grass: 0
Corn (Zea mays); [15]
  Corn plant response rating: 0
Corn (Zea mays); [16]
  Plant response rating, Corn: 0
Corn (Zea mays); [17]
  Plant response rating, Corn: 0
Corn (Zea mays); [18]
  Corn plant response rating: 30
[12]; [15]
  Foxtail, Giant plant response rating: 0
[12]; [16]
  Plant response rating, Foxtail, Giant: 30
[12]; [17]
  Plant response rating, Foxtail, Giant: 20
[12]; [18]
  Foxtail, Giant plant response rating: 50
[13]; [15]
  Crabgrass plant response rating: 10
[13]; [16]
  Plant response rating, Crabgrass: 30
[13]; [17]
  Plant response rating, Crabgrass: 20
[13]; [18]
  Crabgrass plant response rating: 70
[14]; [15]
  Barnyardgrass plant response rating: 0
[14]; [16]
  Plant response rating, Barnyardgrass: 40
[14]; [17]
  Plant response rating, Barnyardgrass: 50
[14]; [18]
  Barnyardgrass plant response rating: 80
